The source made the active and inactive calls. No cut-off for these calls is given here.
Assays:
[1] = Inhibition of human TREX1 exonuclease activity using labeled DNA oligonucleotide as substrate incubated for 30 mins and measured after 45 mins by fluorescence assay
[2] = Inhibition of TREX1 in human THP1-Dual cells assessed as activation of cGAS-STING pathway measured by ISRE luciferase reporter gene assay; assay type: cell-based
MB49 = experiment: Antitumor activity against mouse MB49 cells xenografted in female C57BL/6 mouse assessed as reduction in tumor volume at 100 ug, IT(Intratumoral) followed by 10 Gy gamma irradiation; assay type: functional, cell-based; details: dose 100.0 µg

IC50 [1]	EC50 [2] [nM]	Compound	Activity (MB49)
< 1000 nM	1000	N[C@@H]1C[C@H]2C(=O)N([C@H](CCc3nnn[nH]3)C(=O)NCc3ccc(Cl)c(Cl)c3F)CCC(CCc3ccccc3)N2C1 (stereo partly specified)	
< 1000 nM	1000	N[C@@H]1C[C@H]2C(=O)N([C@H](CCC(=O)O)C(=O)NCc3ccc(Cl)c(Cl)c3F)CCC(CCc3ccccc3)N2C1 (stereo partly specified)	
		N[C@@H]1C[C@H]2C(=O)N([C@H](CCC(=O)O)C(=O)NCc3ccc(Cl)c(Cl)c3)CCC(CCc3ccccc3)N2C1 (stereo partly specified)	Active
in the range around 10000 nM		N[C@@H]1C[C@H]2C(=O)N([C@H]3CCCN(C(=O)c4ccc(Cl)c(Cl)c4)C3)CCC(CCc3ccccc3)N2C1 (mixture of isomers)	
in the range around 1000 nM		N#CC[C@H](C(=O)N1CCc2c(ccc(Cl)c2Cl)C1)N1CCC(CCc2ccccc2)N2C[C@H](N)C[C@H]2C1=O (stereo partly specified)	
< 1000 nM		COC(=O)CC[C@H](C(=O)NS(=O)(=O)c1ccc(Cl)c(Cl)c1)N1CCC(CCc2ccccc2)N2C[C@H](N)C[C@H]2C1=O (stereo partly specified)	
< 1000 nM		N[C@@H]1C[C@H]2C(=O)N([C@@H]3CCCN(S(=O)(=O)c4ccc(Cl)c(Cl)c4)C3)CCC(CCc3ccccc3)N2C1 (stereo partly specified)	
in the range around 1000 nM		CC(C)C[C@H](CNC(=O)c1ccc(Cl)c(Cl)c1)N1CCC(CCc2ccccc2)N2C[C@H](N)C[C@H]2C1=O (stereo partly specified)	
< 1000 nM		CC(C)Oc1c(CNC(=O)[C@@H](CCc2nnn[nH]2)N2CCC(CCc3ccccc3)N3C[C@H](N)C[C@H]3C2=O)ccc(Cl)c1Cl (stereo partly specified)	

Source: ChEMBL document CHEMBL5050834, “Cyclic trex1 inhibitors” (2021)
